For assay [1], the system named is cleaved caspase 7, cleaved PARP, γ-H2AX in MCF7, MDA-MB-231 and HCT116 cells. Kind of assay: Western blot for apoptosis markers. The settings on record: STS as positive control. The format is cell-based, human. Here is the method:
(A) FACS analysis of HCT116 cells after treatment for 2, 4, or 8 hours with vehicle, 30 μM 3-BP, 30 μM NEO218, or 1 μM staurosporine (STS). […] (B) Western blot analysis of apoptotic markers. In the top section, MDA-MB-231 cells were treated with 30 μM NEO218 or 1 μM STS for various time points. In the lower section, HCT116 cells were treated with the indicated concentrations of 3-BP, NEO218, or STS for 16 hours. In all cases cell lysates were prepared and analyzed for the well-established apoptotic markers cleaved PARP, cleaved (i.e., activated) caspase 7 (cl. C-7), and phosphorylated (i.e., active) H2AX. Actin was used as a loading control. (C) HCT116 cells were pretreated with 50 μM Z-VAD-FMK for one hour, followed by the addition of increasing concentrations of 3-BP or NEO218. Cell viability was determined by MTT assay 24 hours later. Data points are averages from n=3.
The capacity for NEO218 to induce apoptosis was evaluated in a series of experiments. Three different cell lines were treated 3-BP and NEO218. Drug-treated cells were harvested, and cellular lysates were analyzed by Western blot for the presence of the three well-established markers of apoptosis: • cleaved caspase 7 (cl. C7); • cleaved (cl.) vs. full-length (f.l.) PARP; and, • induction of γ-H2AX (which indicates DNA cleavage).
The appearance of cl. C7 and cl. PARP is indicative of ongoing apoptotic processes. In all cases, lysates were also probed for the presence of actin as a control.
Two breast cancer cell lines (MCF7 and MDA-MB-231) and one colon cancer cell line (HCT116) were treated with increasing concentrations of NEO218 or 3-BP. As a control, they were also treated with staurosporine (STS), a known potent inducer of apoptosis. Western blot analyses for the presence of apoptosis markers are shown in the left panels of FIG. 6.
Total cell lysates were analyzed by Western blot analysis as described earlier. Primary antibodies against cleaved caspase 7 and PARP were obtained from Cell Signaling Technology (Danvers, Mass.), and antibodies against actin (C-11) and MCT1 (H-1) were obtained from Santa Cruz Biotechnology (Santa Cruz, Calif.). All antibodies were used according to the manufacturers' recommendations, except that in the case of MCT1 detection, the boiling step was omitted before loading the samples onto the polyacrylamide gel. All immunoblots were repeated at least once to confirm the results.
For orientation: A western blot detects proteins with antibodies after separation by electrophoresis.

Assay [2] deals with HCT116 colon cancer cells. The assay can be described thus: Cellular ATP content assay. Type of assay: cell-based, human. The settings on record: HCT116; 3 hours (FIG. 9) or 3 and 6 hours at 40 μM (FIG. 22). The method, then: HCT116 cells were treated with 40 μM 3-BP or NEO218. As a point of reference, cells were also exposed to 100 nM rotenone in glucose-free medium. ATP levels were determined after 3 and 6 hours. ATP levels in untreated cells were set at 100% (corresponding to 26.6 nmol per one million cells).
HCT116 colon cancer cells were treated cells with: NEO218, 3-BP; rotenone (a mitochondrial poison that blocks the respiratory chain); medium without glucose (“no gluc”; in order to shut down glycolysis); and, rotenone in combination with absent glucose (to cease all intracellular ATP production). After 3 hours of treatment, a commercially available ATP detection assay kit was employed to determine the relative levels of ATP present.
ATP content of cells was measured with the ATP Colorimetric/Fluorometric Assay kit (Biovision Inc., Milpitas, Calif.), which utilizes the phosphorylation of glycerol to generate a product that is quantified by colorimetry at 570 nm. Approximately 1×10^6 cells were cultured in 10-cm tissue culture plates, exposed to drug treatment for various time periods, and then processed as per manufacturer's instructions. All ATP levels were normalized to untreated controls and presented as percentage of controls.

For assay [3], the target named is T1, GAPDH (Oryctolagus cuniculus, UniProt P46406).
T1 construct: Purified GAPDH protein (30 μg, 1 μg/μl) from rabbit muscle (ScienCell Research Laboratories); purchased ScienCell Research Laboratories; host or cells: rabbit muscle
T1 sequence (P46406 whole entry): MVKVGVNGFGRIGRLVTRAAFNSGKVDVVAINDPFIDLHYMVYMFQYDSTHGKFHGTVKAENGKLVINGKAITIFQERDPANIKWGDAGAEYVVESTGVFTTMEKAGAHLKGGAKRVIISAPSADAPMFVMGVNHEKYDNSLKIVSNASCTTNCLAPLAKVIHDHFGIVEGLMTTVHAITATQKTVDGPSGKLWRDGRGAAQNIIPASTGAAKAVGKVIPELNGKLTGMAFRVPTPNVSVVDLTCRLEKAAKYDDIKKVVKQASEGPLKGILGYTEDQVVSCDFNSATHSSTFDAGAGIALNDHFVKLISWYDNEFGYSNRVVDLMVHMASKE
The assay can be described thus: Mass spectrometry of purified GAPDH protein incubated with drug (cysteine modification). The format is binding, rabbit. The note with it: 60 μM drug, 15 minutes. The method, then:
Direct interaction of NEO218 with different targets was analyzed by LC/MS analysis. (A) Purified rabbit GAPDH protein was incubated with 3-BP or NEO218 for 15 minutes, followed by LC/MS analysis. GAPDH protein contains 4 cysteines (Cys) at the indicated positions, and all four were identified as being modified with a pyruvate moiety in the case of 3-BP, and a pyruvate-perillyl alcohol moiety in the case of NEO218 (indicated by pyr). (B) Extracted ion chromatogram (XIC) of the reaction products of NEO218 and GSH restricted to mass over charge (m/z) values between 528 and 529. […] Location and relative size of the peak at 529.204 corresponds to the ^13C isotope peak of the reaction product. (C) Reaction of NAC with NEO218 yielded several products shown in the ion map (top panel). The co-eluting twin isotope at m/z 539 and 541 distributed equally (insert in top panel) and was selected for further analysis, as shown in the two chromatograms in the bottom panels.
Thirty microgram of purified GAPDH protein was incubated in vitro with 60 μM 3-BP for 15 minutes at 37° C. Mass spectrometrical analysis was then used to determine whether 3-BP could directly bind to the amino acid sequence of the enzyme. […]

Assay [4] concerns HCT116 cells. Kind of assay: Colony formation assay in HCT116 cells. The format is cell-based, human. The settings on record: for IC50: Homo sapiens, HCT-116, HCT116, 48 hours drug then 10-14 days, read-out: half-maximal effect, CFA. Here is the method: (A) MTT assay was performed after 24 hours. […] (B) LDH assay was performed after […]. LDH release by untreated cells was set to 1. Relative fold increase is shown (n=3).
Depending on the cell line (and plating efficiency), 250-800 cells were seeded into each well of a 6-well plate and treated as described in detail previously. After 12-16 days, colonies (defined as groups of >50 cells) were visualized by staining for 4 hours with 1% methylene blue (in methanol), and then were-counted. Experiments were repeated at least once, but usually more often under different conditions.

SMILES strings stand for the structures. Entries after “also recorded” stand apart in the source; their conditions may differ.

As to `O=C(O)C(=O)CBr` [3-BP, 3-bromopyruvate], the “induction of apoptosis markers (cleaved PARP, cleaved caspase 7, γ-H2AX)” value in assay [1] is “responded only minimally, if at all”. In addition, in assay [2], the “depletion of cellular ATP pools” value was “nearly identical outcomes; also recorded: potently depletes the levels of cellular ATP pools”. In assay [3], the “cysteine residues of GAPDH modified” value is “Cysteines at amino acid positions 245 and 282 turned out to be pyruvylated; also recorded: all 4 cysteines were altered by the addition of pyruvate”. For the same molecule, in assay [4] (HCT116, 40 μM), the “block of colony formation in CFA” value came out at 99%. Besides, the IC50 in assay [4] was approximately 3 µM.
In the case of `C=C(C)[C@@H]1CC=C(COC(=O)C(=O)CBr)CC1` [NEO218, 3-bromo-2-oxo-propionic acid 4-isopropenyl-cyclohex-1-enylmethyl ester], in assay [1], the “induction of apoptosis markers (cleaved PARP, cleaved caspase 7, γ-H2AX)” value is “responded only minimally, if at all; also recorded: barely affects these same markers”. Also, the “depletion of cellular ATP pools” value in assay [2] is reported as “nearly identical outcomes; also recorded: potently depletes the levels of cellular ATP pools”. Besides, the “cysteine residues of GAPDH modified” value in assay [3] is recorded as “the same four residues revealed attachment of pyruvate-perillyl alcohol moieties”. Moreover, in assay [4], the IC50 was approximately 3 µM.

Values taken from US10858305B2, “Perillyl alcohol-3-bromopyruvate conjugate and methods of treating cancer” (NeOnc Technologies, Inc., priority 2016, dated 2020).
